Drawing on US6620842B2, “Chalcones” (Indena SpA, priority 1999, dated 2003), this text covers IC50 for four molecules.

The nature of data set [1]: Cytotoxicity of the compounds alone against drug-resistant cancer cells. Conditions: human, MDA-435/LCC-MDR cells (drug-resistant cancer cells).
Procedure: (§1) The treatment consisted of concurrent exposure of MDA-435/LCC-MDR cells to paclitaxel in the presence or absence of the compounds reversing agent (1 μM) for 72 h in vitro. Assessment of cytotoxicity, i.e. cell growth inhibition, was determined according to the methods of Skehan, et al. as discussed in J. Nat.
(§2) Briefly, cells were plated between 400 and 1200 cells/well in 96 well plates and incubated at 37° C. for 15-18 h prior to drug addiction to allow attachment of cells. Compounds were solubilized in 100% DMSO and further diluted in RPMI-1640 containing 10 mM HEPES. After a 72 h incubation, 100 μl of ice-cold 50% TCA was added to each well and incubated for 1 h at 40° C. Plates were then washed 5 times with tap water to remove TCA, low-molecular weight metabolites and serum proteins. Suforhodamine B (SRB) (0.4%, 50 μl) was added to each well. Following a five minute incubation at room temperature, plates were rinsed 5 times with 0.1% acetic acid and air dried. Bound dye was solubilized with 10 mM Tris Base (pH 10.5) for 5 mm on a gyratory shaker. Optical density was measured at 570 nm.
The test system of data set [2] is drug-resistant breast cancer cells MDA-435/LCC6-MDR. Nature of the data set: Cytostatic activity of paclitaxel alone or in combination with the compounds (SRB cell growth inhibition). It counts as cell-based. The settings on record: IC50 of paclitaxel alone or in presence of compound (reversing agent, 1 μM), MDA-435/LCC6-MDR cells, 72 h. The protocol: The compounds were then evaluated in combination with paclitaxel for their cytostatic activity against the drug-resistant breast cancer cells MDA-435/LCC6-MDR.
In the experiments, the compounds were used in combination with paclitaxel, the paclitaxel being at a concentration of 0.3 μM.
Cancer Inst, 82, 1107, 1990.

Data set [3] concerns drug-resistant cancer cells.
Procedure: as §1, §2

Some results are limits rather than exact numbers.

For `COc1cc(C=CC(=O)c2c(OCC=C(C)C)ccc3c(=O)c4ccccc4oc23)cc(OC)c1OC` [VIB 178, 1-[3-(3-Methylbut-2-Enyloxy)Xanthen-9-one-4-yl]-3-(3,4,5-Tri-Methoxyphenyl)-Propen-1-one], the half-inhibitory concentration (IC50) at 72 h in data set [1] was over 1000 nM.
Still for that read-out and setting: under `COc1cc(C=CC(=O)c2c(OCC=C(C)C)ccc3c(=O)c(C)c(-c4ccccc4)oc23)cc(OC)c1OC` [VIB 173, 1-[3-Methyl-7-(3-Methylbut-2-Enyloxy)Flavon-8-yl]-3-(3,4,5-Tri-Methoxy)Phenyl-Propen-1-one] stands over 1000 nM.
For the molecule `CC(=O)O[C@H]1C(=O)[C@@]2(C)[C@H]([C@H](OC(=O)c3ccccc3)[C@]3(O)C[C@H](OC(=O)[C@H](O)[C@@H](NC(=O)c4ccccc4)c4ccccc4)C(C)=C1C3(C)C)[C@]1(OC(C)=O)CO[C@@H]1C[C@@H]2O` [Paclitaxel, paclitaxel], in data set [2], the IC50 turned out to be 426 nM.
Turning to “1-[3-Methyl-7-(Prop-2-ynyloxy)flavon-8-yl]-Phenyl-Propen-1-one [VIB 167]”, in data set [3], the half-maximal inhibitory concentration (IC50) was over 1000 nM.
